In patent publication US20240336889A1, “NOMADIC BACTERIA AND USES THEREOF” (The State of Israel, Ministry of Agriculture & Rural …, priority 2021, published 2024):

Columns and labels:
[1] = tested on: C. albicans; test: Yeast-hyphae switching assay; type: cell-based; details: liquid RPMI media
Procedure: Yeast-hyphae switching assay: Yeast-hyphae (Y-H) switching assays were conducted in liquid RPMI-1640 medium as previously described. Briefly, overnights cultures of C. albicans (grown in PDB) were diluted to a 1:100 in RPMI-1640 and treated with or without UP/CSP ([…]) or ketones (0.005%-0.1%). The cultures were then incubated at 37° C. with shaking (150 rpm). Following incubation, 5 μL of the cultures were transferred to the microscopic slide and imaged under Nikon fluorescent microscope (Nikon Eclipse Ti2, Japan).

[2] = tested on: C. albicans; test: C. albicans biofilm inhibition assay (crystal violet); type: cell-based; details: for effect of pure ketone on C. albicans biofilms: dose not stated
Procedure: (§1) Biofilm inhibition assay: Biofilm inhibition assays were conducted in 96-well polystyrene microtiter plates (Tarsons Products Pvt. Ltd. India) as previously described. Briefly, bacterial or yeast cells were cultured overnight in LB or PDB and re-inoculated in fresh LB or PDB (1:100 dilution) (with 0.05% glucose) with and without supplementation of postbiotics (5% or 10% v/v) at 37° C. After 24 h of incubation, biofilms were stained with crystal violet (0.1%) for 20 min, washed repeatedly, and the residual biofilm cells (attached to the polystyrene surfaces) were dissolved in 95% ethanol. The planktonic growth was measured at 600 nm, while the biofilms were measured at 575 nm using a Biowave CO8000 cell density meter. For microscopic imaging of biofilms attached to the polystyrene surfaces, the wells were stained with SYTO® 9 dye, and imaged under Nikon fluorescent microscope (Nikon Eclipse Ti2, Japan) using a GFP emission filter.

[3] = tested on: C. elegans; test: C. elegans toxicity assay; type: in vivo; details: 2-undecanone 0.1%, 7 days
Procedure: C. elegans toxicity assay: C. elegans wild-type strains were maintained on nematode growth medium (NGM) with E. coli OP50 as the feed. […] The control and treatment groups (each consisting of approximately 30 nematodes per well) were suspended in liquid M9 buffer and monitored for 7 days. The live or dead nematodes were counted using the Nikon fluorescent microscope (Nikon Eclipse Ti2, Japan) using a DIC and DAPi (blue LED light) filters and the survival percentage was calculated.

[4] = tested on: C. albicans; test: C. albicans growth profile; type: cell-based
Procedure: as §1, with “Briefly, bacterial or yeast cells were cultured overnight in LB or PDB and re-inoculated in fresh LB or PDB (1:100 dilution) (with 0.05% glucose) with and without supplementation of postbiotics (5% or 10% v/v) at 37° C.” left out

[5] = tested on: C. albicans; test: C. elegans infected with C. albicans, treated with 2-undecanone; type: in vivo; details: 2-undecanone 0.01%, 7 days; infected untreated 20% survival
Procedure: C. elegans co-infection assays: Wild-type C. elegans were maintained on nematode growth medium (NGM) with E. coli OP50 as the feed, and synchronization was performed as described previously^35. Briefly, C. elegans were collected by aspiration and bleached with 2% sodium hypochlorite and 0.5 N sodium hydroxide to get the eggs. Eggs were transferred to 48-well microliter plates and were incubated for 24 h at 22° C. for hatching. The hatched juveniles were transferred to new E. coli OP50 plates and incubated for 5-7 days to obtain adult nematode. Adults were subsequently used for toxicity, and bacterial or C. albicans colonization assays. For C. albicans infection of C. elegans, the adult nematodes, previously fed on E. coli OP50, were transferred to a C. albicans lawn on NGM agar plate for 4 h. After 4 h, the nematodes were collected in M9 buffer, pipetted into a 96-well, and survival monitored for 7 days. […] The live and dead nematodes were counted under bright-field, and DAPi filter and the nematode survival rates were estimated and plotted. The images of C. elegans were acquired using a Nikon fluorescent microscope (Nikon Eclipse Ti2, Japan).
The present inventors further tested whether 2-undecanone could suppress C. albicans pathogenicity in a C. elegans model by infecting C. elegans with C. albicans.

[6] = tested on: unstressed L. plantarum 3297 cells from conic colonies; test: Cold-shock colony filtrate assay: consolidated circular bundle formation in unstressed conic colony cells; type: cell-based; details: cells pre-incubated with lithium chloride (5M) before CSCF
Procedure: An assay was developed to see if the cold-stressed conic colony (−17° C. for 1 h) extracts could potentiate consolidated bundling in unstressed conic colony cells. Briefly, 1 mL of suspension from harvested cold-stressed (treated) and unstressed (control) conic colonies (approximately 5-6 colonies) were resuspended in PBS, vortexed, and sonicated. The extracts were filtered using a 0.2 μm membrane filter to remove the cells. The filtrate was named cold-shock colony filtrates (CSCF). Simultaneously, 1 mL cells from the unstressed colonies were vortexed, sonicated, and pelleted. To these pelleted unstressed cells, 1 mL of CSCF was added, aspirated, and incubated at 37° C. for 3 h. At the same time, colony filtrates (CF) from the unstressed colony and heat-treated (60° C. for 30 min) CSCF were prepared and tested. Following incubation, the aggregation pattern was scrutinized under Nikon fluorescent microscope (Nikon Eclipse Ti2, Japan). As a negative control, one vial of unstressed cells was incubated with 5M lithium chloride ([…]) for 30 min before adding 1 mL of CSCF. […] abolishes the S-layer protein and stalls the ability of the cells to aggregate to form bundles.

CCCCCC(C)=O [2-heptanone]
effect of pure ketone on C. albicans hyphae (Y-H transitions) [1]: did not show any notable effect | effect of pure ketone on C. albicans biofilms [2]: did not show any notable effect

CCCCCCCC(C)=O [2-nonanone]
effect of pure ketone on C. albicans hyphae (Y-H transitions) [1]: did not show any notable effect | effect of pure ketone on C. albicans biofilms [2]: did not show any notable effect

CCCCCCCCCC(C)=O [2-undecanone]
mortality of C. elegans [3]: did not induce any mortality | effect of pure ketone on C. albicans hyphae (Y-H transitions) [1]: effectively controlled Y-H transitions | C. albicans biofilm formation ([2]; 0.005%, PDB, polystyrene): successful in preventing the biofilm formation | C. albicans planktonic growth ([4]; 0.005%): without compromising the planktonic growth | C. albicans growth profiles ([4]; higher dosage (0.05 or 0.01%), RPMI media): substantial decline in the growth profiles | survivability of C. albicans infected C. elegans [5]: 50%

[Cl-].[Li+] [lithium chloride]
circular bundle formation induced by CSCF [6]: prevented
